In ChEMBL document CHEMBL4014283, “Structural insights of SmKDAC8 inhibitors: Targeting Schistosoma epigenetics through a combined structure-based 3D QSAR, in vitro and synthesis strategy” (Bioorg Med Chem, 2017):
Calls of active or inactive are those of the source. The calls are words filed in the database; no cut-off is given here.

Columns and labels:
[1] = molecular target: KDAC3/NCOR2 (histone deacetylase 3/nuclear receptor corepressor 2 complex) (Homo sapiens, UniProt O15379); test: (§1) Inhibition of full length human C-terminal His-tagged KDAC3/N-terminal GST-tagged human NCOR2 (395 to 489 residues) expressed in baculovirus expression system at 30 uM using FITC-p53 acetylated peptide as substrate after 60 mins by microfluidic assay; details: probe FITC-p53 acetylated peptide
Chain of KDAC3/NCOR2 (histone deacetylase 3/nuclear receptor corepressor 2 complex) (O15379 whole entry, the tested form may be a part): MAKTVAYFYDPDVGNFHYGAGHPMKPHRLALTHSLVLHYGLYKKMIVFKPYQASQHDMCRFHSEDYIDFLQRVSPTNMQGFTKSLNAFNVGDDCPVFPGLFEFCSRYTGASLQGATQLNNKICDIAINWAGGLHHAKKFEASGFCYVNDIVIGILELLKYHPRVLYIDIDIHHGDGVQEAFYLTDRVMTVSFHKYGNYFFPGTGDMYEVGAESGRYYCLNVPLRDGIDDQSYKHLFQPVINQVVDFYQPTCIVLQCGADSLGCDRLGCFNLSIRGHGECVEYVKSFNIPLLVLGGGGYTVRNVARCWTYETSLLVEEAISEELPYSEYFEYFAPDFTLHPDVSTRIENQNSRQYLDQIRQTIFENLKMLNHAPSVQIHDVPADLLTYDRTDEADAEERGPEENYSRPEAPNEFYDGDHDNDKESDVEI
Chain of KDAC3/NCOR2 (histone deacetylase 3/nuclear receptor corepressor 2 complex) (Q9Y618 whole entry, further chain, the tested form may be a part): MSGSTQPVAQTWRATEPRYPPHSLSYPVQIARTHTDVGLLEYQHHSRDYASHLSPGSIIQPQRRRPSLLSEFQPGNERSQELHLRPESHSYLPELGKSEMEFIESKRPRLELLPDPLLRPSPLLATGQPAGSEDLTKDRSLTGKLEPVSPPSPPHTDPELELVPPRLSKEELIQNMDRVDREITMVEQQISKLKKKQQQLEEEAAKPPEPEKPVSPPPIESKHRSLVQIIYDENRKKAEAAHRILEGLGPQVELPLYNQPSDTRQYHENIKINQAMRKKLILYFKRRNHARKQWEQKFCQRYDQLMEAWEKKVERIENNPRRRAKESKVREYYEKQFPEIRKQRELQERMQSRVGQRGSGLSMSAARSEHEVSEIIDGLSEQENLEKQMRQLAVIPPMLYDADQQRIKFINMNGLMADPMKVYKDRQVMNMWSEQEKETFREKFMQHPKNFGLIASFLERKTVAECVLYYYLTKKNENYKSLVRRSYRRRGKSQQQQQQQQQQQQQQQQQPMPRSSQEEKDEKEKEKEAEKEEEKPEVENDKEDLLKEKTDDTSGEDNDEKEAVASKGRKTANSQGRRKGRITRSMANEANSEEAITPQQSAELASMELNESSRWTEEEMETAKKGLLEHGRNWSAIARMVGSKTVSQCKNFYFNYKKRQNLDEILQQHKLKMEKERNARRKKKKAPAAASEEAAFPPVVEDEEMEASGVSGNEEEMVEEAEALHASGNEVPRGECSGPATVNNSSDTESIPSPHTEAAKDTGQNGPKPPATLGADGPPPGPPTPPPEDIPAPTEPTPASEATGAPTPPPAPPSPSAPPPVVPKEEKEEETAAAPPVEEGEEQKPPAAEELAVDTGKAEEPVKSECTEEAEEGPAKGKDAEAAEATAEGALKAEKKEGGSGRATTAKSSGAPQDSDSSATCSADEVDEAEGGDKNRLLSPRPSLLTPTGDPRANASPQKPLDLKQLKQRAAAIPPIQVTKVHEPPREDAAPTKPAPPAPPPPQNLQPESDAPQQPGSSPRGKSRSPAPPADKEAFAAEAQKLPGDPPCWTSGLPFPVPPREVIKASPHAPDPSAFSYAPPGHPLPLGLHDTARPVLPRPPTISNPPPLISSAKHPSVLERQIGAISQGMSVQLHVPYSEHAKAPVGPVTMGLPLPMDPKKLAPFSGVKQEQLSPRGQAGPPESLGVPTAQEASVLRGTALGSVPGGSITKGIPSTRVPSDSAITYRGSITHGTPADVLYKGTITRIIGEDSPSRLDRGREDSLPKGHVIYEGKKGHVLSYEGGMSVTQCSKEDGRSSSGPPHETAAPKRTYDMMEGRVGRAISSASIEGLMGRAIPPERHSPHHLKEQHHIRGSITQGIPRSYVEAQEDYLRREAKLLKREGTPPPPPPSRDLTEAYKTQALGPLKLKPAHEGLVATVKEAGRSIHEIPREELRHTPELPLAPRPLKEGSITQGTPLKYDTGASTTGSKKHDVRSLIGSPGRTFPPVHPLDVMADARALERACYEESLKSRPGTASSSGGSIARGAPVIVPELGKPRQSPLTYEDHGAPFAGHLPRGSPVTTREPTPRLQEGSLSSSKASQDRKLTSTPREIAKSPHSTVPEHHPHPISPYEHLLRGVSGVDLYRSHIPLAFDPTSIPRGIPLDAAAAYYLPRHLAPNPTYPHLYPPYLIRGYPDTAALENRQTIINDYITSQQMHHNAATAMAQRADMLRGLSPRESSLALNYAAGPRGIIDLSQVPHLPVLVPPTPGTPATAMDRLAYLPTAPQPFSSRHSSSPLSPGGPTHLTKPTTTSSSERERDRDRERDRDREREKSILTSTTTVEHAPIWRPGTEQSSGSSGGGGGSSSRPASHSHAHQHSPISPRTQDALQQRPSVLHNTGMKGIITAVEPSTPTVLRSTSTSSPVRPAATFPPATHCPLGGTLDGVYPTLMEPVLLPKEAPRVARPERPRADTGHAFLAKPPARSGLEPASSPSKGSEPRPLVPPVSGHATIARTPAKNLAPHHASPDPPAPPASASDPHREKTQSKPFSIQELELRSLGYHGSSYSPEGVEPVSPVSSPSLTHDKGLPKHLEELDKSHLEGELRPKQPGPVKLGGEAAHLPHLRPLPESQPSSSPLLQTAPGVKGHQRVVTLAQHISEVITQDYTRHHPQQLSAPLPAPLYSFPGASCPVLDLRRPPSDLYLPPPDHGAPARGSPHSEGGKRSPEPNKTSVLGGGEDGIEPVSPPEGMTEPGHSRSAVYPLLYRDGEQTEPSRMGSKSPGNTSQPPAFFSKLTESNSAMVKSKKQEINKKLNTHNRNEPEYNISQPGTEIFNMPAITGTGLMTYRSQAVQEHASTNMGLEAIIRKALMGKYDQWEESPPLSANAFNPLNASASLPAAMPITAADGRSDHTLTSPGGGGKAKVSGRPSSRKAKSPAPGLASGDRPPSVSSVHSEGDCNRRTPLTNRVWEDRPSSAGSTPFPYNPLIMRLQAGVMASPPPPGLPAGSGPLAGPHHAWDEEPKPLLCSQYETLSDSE

Histone deacetylase 8 = molecular target: T1, Histone deacetylase 8 (Homo sapiens, UniProt Q9BY41); test: (§2) Inhibition of full length human C-terminal His-tagged KDAC8 expressed in baculovirus expression system at 30 uM using (FAM)-labeled peptide as substrate after 60 mins by microfluidic assay relative to control; details: 1 h, 30 µM
T1 sequence (Q9BY41 whole entry): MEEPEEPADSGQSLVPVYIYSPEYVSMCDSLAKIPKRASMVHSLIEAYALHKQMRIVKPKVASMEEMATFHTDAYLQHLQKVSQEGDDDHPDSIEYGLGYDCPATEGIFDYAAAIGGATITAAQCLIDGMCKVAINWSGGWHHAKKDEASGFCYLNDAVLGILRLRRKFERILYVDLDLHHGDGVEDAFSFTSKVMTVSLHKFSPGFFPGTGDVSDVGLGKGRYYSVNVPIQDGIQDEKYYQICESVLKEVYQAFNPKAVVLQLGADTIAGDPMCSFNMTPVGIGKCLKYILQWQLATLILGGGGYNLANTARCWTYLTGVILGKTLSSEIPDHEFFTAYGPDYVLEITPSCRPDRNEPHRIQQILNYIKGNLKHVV

[2] = molecular target: KDAC1 (histone deacetylase 1) (Homo sapiens, UniProt Q13547); test: (§3) Inhibition of full length human C-terminal FLAG/His-tagged KDAC1 expressed in baculovirus expression system at 30 uM using substrate A after 60 mins by microfluidic assay relative to control; details: probe substrate A
Chain of KDAC1 (histone deacetylase 1) (Q13547 whole entry): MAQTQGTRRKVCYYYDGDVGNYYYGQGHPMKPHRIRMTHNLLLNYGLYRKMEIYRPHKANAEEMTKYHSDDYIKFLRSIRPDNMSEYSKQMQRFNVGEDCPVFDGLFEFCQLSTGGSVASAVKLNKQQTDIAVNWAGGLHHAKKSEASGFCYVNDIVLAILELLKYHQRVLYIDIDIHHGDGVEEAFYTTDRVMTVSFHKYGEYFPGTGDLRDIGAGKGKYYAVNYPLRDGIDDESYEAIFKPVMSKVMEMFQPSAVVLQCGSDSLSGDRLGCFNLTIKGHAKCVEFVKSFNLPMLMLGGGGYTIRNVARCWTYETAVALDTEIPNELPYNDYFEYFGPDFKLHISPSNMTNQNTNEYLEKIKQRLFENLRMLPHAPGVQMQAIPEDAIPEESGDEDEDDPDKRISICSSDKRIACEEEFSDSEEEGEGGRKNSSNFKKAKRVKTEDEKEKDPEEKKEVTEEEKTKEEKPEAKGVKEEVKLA

[3] = molecular target: T2, Protein deacetylase HDAC6 (Homo sapiens, UniProt Q9UBN7); test: (§4) Inhibition of human KDAC6 expressed in baculovirus expression system at 30 uM using FITC-Histone 4 acetylated peptide as substrate after 60 mins by microfluidic assay; details: 1 h, 30 µM
T2 sequence (Q9UBN7 whole entry): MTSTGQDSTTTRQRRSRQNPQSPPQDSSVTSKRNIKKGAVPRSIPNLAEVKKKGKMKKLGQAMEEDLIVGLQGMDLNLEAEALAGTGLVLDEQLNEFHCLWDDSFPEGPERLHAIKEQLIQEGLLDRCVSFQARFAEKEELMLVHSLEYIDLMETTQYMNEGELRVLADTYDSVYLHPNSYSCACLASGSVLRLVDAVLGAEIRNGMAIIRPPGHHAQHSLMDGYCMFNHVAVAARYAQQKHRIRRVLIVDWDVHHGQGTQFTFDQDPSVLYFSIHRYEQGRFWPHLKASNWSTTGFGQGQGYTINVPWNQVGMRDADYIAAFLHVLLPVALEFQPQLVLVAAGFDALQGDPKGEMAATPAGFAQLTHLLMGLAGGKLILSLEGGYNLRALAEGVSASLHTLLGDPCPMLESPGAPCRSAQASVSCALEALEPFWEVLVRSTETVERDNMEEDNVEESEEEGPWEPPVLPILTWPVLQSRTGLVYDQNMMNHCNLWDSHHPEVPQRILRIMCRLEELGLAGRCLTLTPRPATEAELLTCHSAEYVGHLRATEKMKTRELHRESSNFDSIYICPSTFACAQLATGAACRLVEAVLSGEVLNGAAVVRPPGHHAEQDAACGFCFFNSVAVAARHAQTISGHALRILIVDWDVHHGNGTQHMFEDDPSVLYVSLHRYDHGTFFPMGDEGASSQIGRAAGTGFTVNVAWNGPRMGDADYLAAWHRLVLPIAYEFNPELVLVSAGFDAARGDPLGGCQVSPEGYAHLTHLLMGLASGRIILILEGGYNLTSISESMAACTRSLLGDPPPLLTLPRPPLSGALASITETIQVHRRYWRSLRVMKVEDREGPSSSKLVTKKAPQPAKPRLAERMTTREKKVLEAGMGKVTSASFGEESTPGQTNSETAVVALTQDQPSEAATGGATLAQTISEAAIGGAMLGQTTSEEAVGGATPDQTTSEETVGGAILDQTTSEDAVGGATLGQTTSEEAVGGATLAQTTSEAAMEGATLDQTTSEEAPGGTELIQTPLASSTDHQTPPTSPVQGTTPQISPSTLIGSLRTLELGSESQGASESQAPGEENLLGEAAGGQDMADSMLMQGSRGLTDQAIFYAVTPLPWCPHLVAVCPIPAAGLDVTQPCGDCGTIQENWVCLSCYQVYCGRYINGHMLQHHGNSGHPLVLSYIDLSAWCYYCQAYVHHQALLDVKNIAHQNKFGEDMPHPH

[4] = molecular target: T3, Histone deacetylase 8 (Schistosoma mansoni) (UniProt A5H660); test: Inhibition of Schistosoma mansoni KDAC8 at 30 uM using (FAM)-labeled peptide as substrate after 60 mins by microfluidic assay
T3 sequence (whole entry): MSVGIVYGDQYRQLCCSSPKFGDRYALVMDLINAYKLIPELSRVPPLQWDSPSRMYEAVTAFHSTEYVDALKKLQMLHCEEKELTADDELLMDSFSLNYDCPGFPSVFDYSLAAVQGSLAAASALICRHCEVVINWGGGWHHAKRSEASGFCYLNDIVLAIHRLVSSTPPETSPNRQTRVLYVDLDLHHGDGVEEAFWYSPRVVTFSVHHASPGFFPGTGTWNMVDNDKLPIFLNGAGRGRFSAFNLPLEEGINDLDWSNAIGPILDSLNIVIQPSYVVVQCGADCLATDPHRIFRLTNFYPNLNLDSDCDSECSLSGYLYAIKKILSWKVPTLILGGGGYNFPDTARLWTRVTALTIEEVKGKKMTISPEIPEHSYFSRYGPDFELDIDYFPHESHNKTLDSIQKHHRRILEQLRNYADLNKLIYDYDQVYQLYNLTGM

Histone deacetylase 1 = Histone deacetylase 1 (Homo sapiens, UniProt Q13547); test: as §3; details: 1 h, 30 µM
Chain of Histone deacetylase 1 (Q13547 whole entry): as the sequence (Q13547 whole entry) above

[5] = molecular target: T4, KDAC6 (protein deacetylase HDAC6) (Homo sapiens, UniProt Q9UBN7); test: as §4; details: probe FITC-Histone 4 acetylated peptide
T4 sequence (Q9UBN7 whole entry): T2 sequence (Q9UBN7 whole entry)

[6] = molecular target: Histone deacetylase 3/Nuclear receptor corepressor 2 (HDAC3/NCoR2) (Homo sapiens, UniProt O15379+Q9Y618); test: as §1; details: 1 h, 30 µM
Chain of Histone deacetylase 3/Nuclear receptor corepressor 2 (HDAC3/NCoR2) (O15379 whole entry): as the sequence (O15379 whole entry, the tested form may be a part) above
Chain of Histone deacetylase 3/Nuclear receptor corepressor 2 (HDAC3/NCoR2) (Q9Y618 whole entry): as the sequence (Q9Y618 whole entry, further chain, the tested form may be a part) above

[7] = molecular target: T5, KDAC8 (histone deacetylase 8) (Homo sapiens, UniProt Q9BY41); test: as §2; details: probe (FAM)-labeled peptide
T5 sequence (Q9BY41 whole entry): T1 sequence (Q9BY41 whole entry)

Row | Compound | inhibition at 1 h, 30 µM [1] [%] | inhibition (INH) (Histone deacetylase 8) | inhibition at 1 h, 30 µM [2] [%] | inhibition (INH) [3] | inhibition [4] | inhibition (INH) (Histone deacetylase 1) | inhibition at 1 h, 30 µM [5] [%] | inhibition (INH) [6] | inhibition at 1 h, 30 µM [7] [%]
1 | O=C(Nc1cccc([N+](=O)[O-])c1)c1ccc2ccccc2c1O | 10 | Not Active | 3 | Not Active | inactive | – | – | – | –
2 | CCOC(=O)CSc1nc2nc(Cl)c(Cl)[nH]c-2n1 | 9 | Not Active | – | – | inactive | Not Active | 21 | – | –
3 | O=[N+]([O-])c1c(N2CCN(CCO)CC2)nc2ccccn12 | – | – | – | – | 2% | Not Active | 1 | Not Active | 31
4 | Nc1cc(Cl)c(Cl)cc1S(=O)(=O)NO | 6.7 | – | – | – | 8.43% | Not Active | 3.7 | – | 10.4
5 | COc1ccc([N+](=O)[O-])cc1NS(=O)(=O)c1ccc(C)cc1 | 9 | – | – | – | 13% | Not Active | 7 | – | 24
6 | CC1(C)[C@H]2CC[C@H](CNC(=N)CSS(=O)(=O)O)[C@@H]1C2 | – | Not Active | – | – | inactive | Not Active | 9 | Not Active | –
7 | Cc1cc(OCCCCOc2ccc(C#N)cc2)ccc1[N+](=O)[O-] | – | – | – | – | inactive | Not Active | 3 | Not Active | 19
8 | O=C(O)c1ccccc1C(=O)Nc1ccccc1[N+](=O)[O-] | – | Not Active | – | Not Active | 6% | Not Active | – | Not Active | –
9 | Clc1ccc(Nc2nnc(-c3ccc4c(c3)OCO4)o2)cc1 | – | Not Active | – | Not Active | 10% | Not Active | – | Not Active | –
10 | CCOC(=O)Nc1ccc2nc(N3CCCCCC3)sc2c1 | – | – | – | Not Active | 5% | Not Active | – | Not Active | 6
11 | Nc1ccccc1SC1CC(=O)N(c2ccccc2Cl)C1=O (stereo not given) | – | Not Active | – | – | 1% | Not Active | 1 | Not Active | –
12 | O=C(OCC(O)COC(=O)c1cccnc1)c1cccnc1 | – | Not Active | – | Not Active | inactive | Not Active | – | Not Active | –
13 | CSC1=NC=C(C#N)C2=NC(c3ccc(Cl)cc3)NN12 (stereo not given) | 8 | Not Active | – | – | inactive | Not Active | 3 | – | –
14 | O=C(NCc1ccco1)Nc1cccc([N+](=O)[O-])c1 | 7 | – | – | Not Active | 16% | Not Active | – | – | 7
15 | CSc1nc(O)nnc1Sc1ccccc1 | 24 | Not Active | – | – | inactive | Not Active | 20 | – | –
16 | CC(C)NCC1CCc2cc(CO)c([N+](=O)[O-])cc2N1 (stereo not given) [OXAMNIQUINE] | – | Not Active | – | Not Active | inactive | Not Active | – | Not Active | –
17 | CCOC(=O)c1cc2c(OC)c(OC)ccc2c2ncc(C#N)c(O)c12 | 2 | – | – | Not Active | inactive | Not Active | – | – | 15
18 | Cc1cc(C)n(C(=N)NC(=O)c2ccc([N+](=O)[O-])cc2)n1 | – | – | – | Not Active | 2% | Not Active | – | Not Active | 4
19 | CC(=O)OCCn1c([N+](=O)[O-])cnc1/C=[N+](\[O-])C1CCCCC1 | – | Not Active | – | Not Active | 12% | Not Active | – | Not Active | –
20 | COC(=O)CC1(C(=O)OC)Nc2cc(Cl)c(Cl)cc2S(=O)(=O)N1 (stereo not given) | 6 | – | – | – | 37% | Not Active | 3 | – | 17
21 | O=C1c2ccccc2C2=C3C(O)=NN=C3CCN12 | 1 | – | – | Not Active | inactive | Not Active | – | – | 5
22 | S=C(SCc1cc(Cl)cc2c1OCOC2)N1CCSCC1 | – | – | – | Not Active | inactive | Not Active | – | Not Active | 4
23 | O=C1CSC(=S)N1/N=C/c1c[nH]c2ccc(Br)cc12 | 10 | Not Active | – | – | inactive | Not Active | 18 | – | –
24 | Cc1c(COC(=O)N(C)C)c(COC(=O)NC(C)C)c2n1CS(=O)(=O)C2 | 3 | – | – | Not Active | inactive | Not Active | – | – | 7
25 | O=C1Nc2cc(Cl)c(Cl)cc2S(=O)(=O)N1O | 0.8 | – | – | – | inactive | Not Active | 12.3 | – | 23.5
26 | Cc1cc(-n2cnc3c(O)ncnc32)ccc1N | – | Not Active | – | Not Active | 1% | Not Active | – | Not Active | –
